Measured values taken from the kinase profiling compilation of Christmann-Franck et al. (2016).

Columns and labels:
Experiment in all cases: radiometric filter-binding kinase assay
[1] = target: MAPK14 (human) (UniProt Q16539); conditions: compound 100.0 µM; ATP 50 µM
[2] = target: BRSK1 (human) (UniProt Q8TDC3); conditions: compound 100.0 µM; ATP 20 µM
[3] = target: CSK (human) (UniProt P41240); conditions: compound 100.0 µM; ATP 20 µM
[4] = target: MINK1 (human) (UniProt Q8N4C8); conditions: compound 100.0 µM; ATP 50 µM
[5] = target: EPHB3 (human) (UniProt P54753); conditions: compound 100.0 µM; ATP 20 µM
[6] = target: MKNK1 (human) (UniProt Q9BUB5); conditions: compound 100.0 µM; ATP 50 µM
[7] = target: PIM1 (human) (UniProt P11309); conditions: compound 100.0 µM; ATP 20 µM
[8] = target: PAK6 (human) (UniProt Q9NQU5); conditions: compound 100.0 µM; ATP 20 µM
[9] = target: SRPK1 (human) (UniProt Q96SB4); conditions: compound 100.0 µM; ATP 50 µM
[10] = target: EPHA4 (human) (UniProt P54764); conditions: compound 100.0 µM; ATP 50 µM
[11] = target: INSR (human) (UniProt P06213); conditions: compound 100.0 µM; ATP 20 µM
[12] = test system: SGK1 (human), O00141 [S422D]; conditions: compound 100.0 µM; ATP 20 µM
[13] = target: SRC (human) (UniProt P12931); conditions: compound 100.0 µM; ATP 50 µM
[14] = target: MAP2K1 (human) (UniProt Q02750); conditions: compound 100.0 µM; ATP 5 µM
[15] = target: AURKB (human) (UniProt Q96GD4); conditions: compound 100.0 µM; ATP 20 µM
[16] = target: CSNK2A1 (human) (UniProt P68400); conditions: compound 100.0 µM; ATP 5 µM
[17] = target: FGFR1 (human) (UniProt P11362); conditions: compound 100.0 µM; ATP 20 µM
[18] = target: MAPK1 (human) (UniProt P28482); conditions: compound 100.0 µM; ATP 20 µM
[19] = target: BTK (human) (UniProt Q06187); conditions: compound 100.0 µM; ATP 50 µM
[20] = target: EPHA2 (human) (UniProt P29317); conditions: compound 100.0 µM; ATP 50 µM
[21] = target: TAOK1 (human) (UniProt Q7L7X3); conditions: compound 100.0 µM; ATP 20 µM
[22] = target: MST4 (human) (UniProt Q9P289); conditions: compound 100.0 µM; ATP 20 µM
[23] = target: STK33 (human) (UniProt Q9BYT3); conditions: compound 100.0 µM; ATP 50 µM
[24] = target: MARK3 (human) (UniProt P27448); conditions: compound 100.0 µM; ATP 5 µM
[25] = target: RPS6KA3 KD1 KD2 (human) (UniProt P51812); conditions: compound 100.0 µM; ATP 50 µM
[26] = target: MAPK9 (human) (UniProt P45984); conditions: compound 100.0 µM; ATP 20 µM
[27] = target: CLK2 (human) (UniProt P49760); conditions: compound 100.0 µM; ATP 5 µM
[28] = target: PRKCA (human) (UniProt P17252); conditions: compound 100.0 µM; ATP 20 µM
[29] = target: DAPK1 (human) (UniProt P53355); conditions: compound 100.0 µM; ATP 5 µM
[30] = target: MAPK13 (human) (UniProt O15264); conditions: compound 100.0 µM; ATP 5 µM
[31] = target: IRAK4 (human) (UniProt Q9NWZ3); conditions: compound 100.0 µM; ATP 20 µM
[32] = target: DYRK3 (human) (UniProt O43781); conditions: compound 100.0 µM; ATP 5 µM
[33] = target: BRSK2 (human) (UniProt Q8IWQ3); conditions: compound 100.0 µM; ATP 50 µM
[34] = target: HIPK2 (human) (UniProt Q9H2X6); conditions: compound 100.0 µM; ATP 5 µM
[35] = target: TEK (human) (UniProt Q02763); conditions: compound 100.0 µM; ATP 20 µM
[36] = target: DYRK2 (human) (UniProt Q92630); conditions: compound 100.0 µM; ATP 50 µM
[37] = target: EPHB1 (human) (UniProt P54762); conditions: compound 100.0 µM; ATP 20 µM
[38] = target: PAK7 (human) (UniProt Q9P286); conditions: compound 100.0 µM; ATP 20 µM
[39] = target: ZAP70 (human) (UniProt P43403); conditions: compound 100.0 µM; ATP 5 µM
[40] = target: CAMKK2 (human) (UniProt Q96RR4); conditions: compound 100.0 µM; ATP 20 µM

Sequence of MAPK9 (human) (P45984 whole entry, looked up): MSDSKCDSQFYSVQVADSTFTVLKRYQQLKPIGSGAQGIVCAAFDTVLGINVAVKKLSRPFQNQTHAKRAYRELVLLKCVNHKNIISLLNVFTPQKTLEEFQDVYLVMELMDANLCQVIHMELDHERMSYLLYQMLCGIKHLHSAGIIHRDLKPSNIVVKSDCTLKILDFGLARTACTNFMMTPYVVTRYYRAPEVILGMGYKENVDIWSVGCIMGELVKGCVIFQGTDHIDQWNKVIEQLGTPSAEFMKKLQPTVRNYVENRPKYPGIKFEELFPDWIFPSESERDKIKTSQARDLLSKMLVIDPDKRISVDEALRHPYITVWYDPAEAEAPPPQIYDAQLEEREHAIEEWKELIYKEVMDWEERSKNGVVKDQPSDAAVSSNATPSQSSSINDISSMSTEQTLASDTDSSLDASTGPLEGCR
Sequence of PIM1 (human) (P11309 whole entry, looked up): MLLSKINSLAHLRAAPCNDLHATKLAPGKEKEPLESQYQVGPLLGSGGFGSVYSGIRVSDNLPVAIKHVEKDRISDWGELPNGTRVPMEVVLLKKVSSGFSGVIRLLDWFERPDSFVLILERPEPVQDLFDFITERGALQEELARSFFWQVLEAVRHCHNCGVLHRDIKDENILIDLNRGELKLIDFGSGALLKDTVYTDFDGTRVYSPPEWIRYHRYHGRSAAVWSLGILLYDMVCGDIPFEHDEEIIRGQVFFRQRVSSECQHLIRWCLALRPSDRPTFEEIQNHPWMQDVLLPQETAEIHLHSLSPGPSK
Sequence of EPHA4 (human) (P54764 whole entry, looked up): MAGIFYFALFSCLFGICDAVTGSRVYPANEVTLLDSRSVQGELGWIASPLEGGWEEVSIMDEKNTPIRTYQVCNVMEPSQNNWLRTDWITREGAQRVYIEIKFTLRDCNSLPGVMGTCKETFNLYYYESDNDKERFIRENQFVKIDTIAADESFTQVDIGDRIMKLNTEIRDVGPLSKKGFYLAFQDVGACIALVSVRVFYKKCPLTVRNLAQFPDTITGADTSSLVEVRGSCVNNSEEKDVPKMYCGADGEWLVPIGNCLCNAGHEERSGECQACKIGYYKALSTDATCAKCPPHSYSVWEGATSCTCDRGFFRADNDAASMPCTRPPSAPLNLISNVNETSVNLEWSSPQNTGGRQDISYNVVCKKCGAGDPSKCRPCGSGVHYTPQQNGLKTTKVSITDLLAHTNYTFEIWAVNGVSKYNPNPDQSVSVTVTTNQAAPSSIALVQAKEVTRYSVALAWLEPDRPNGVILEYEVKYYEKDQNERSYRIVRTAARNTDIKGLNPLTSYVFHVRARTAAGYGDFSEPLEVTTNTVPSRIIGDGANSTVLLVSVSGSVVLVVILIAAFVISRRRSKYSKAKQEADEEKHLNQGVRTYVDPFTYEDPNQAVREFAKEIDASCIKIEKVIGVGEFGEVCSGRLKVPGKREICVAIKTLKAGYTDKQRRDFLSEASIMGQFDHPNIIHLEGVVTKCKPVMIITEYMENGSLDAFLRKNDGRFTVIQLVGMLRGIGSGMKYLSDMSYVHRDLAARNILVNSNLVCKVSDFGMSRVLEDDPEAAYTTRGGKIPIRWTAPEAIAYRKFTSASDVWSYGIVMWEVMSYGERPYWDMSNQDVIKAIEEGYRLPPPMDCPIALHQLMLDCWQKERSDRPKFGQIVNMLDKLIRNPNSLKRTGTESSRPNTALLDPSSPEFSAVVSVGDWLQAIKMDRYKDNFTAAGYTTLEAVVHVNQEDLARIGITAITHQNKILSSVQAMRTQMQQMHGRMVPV
Sequence of IRAK4 (human) (Q9NWZ3 whole entry, looked up): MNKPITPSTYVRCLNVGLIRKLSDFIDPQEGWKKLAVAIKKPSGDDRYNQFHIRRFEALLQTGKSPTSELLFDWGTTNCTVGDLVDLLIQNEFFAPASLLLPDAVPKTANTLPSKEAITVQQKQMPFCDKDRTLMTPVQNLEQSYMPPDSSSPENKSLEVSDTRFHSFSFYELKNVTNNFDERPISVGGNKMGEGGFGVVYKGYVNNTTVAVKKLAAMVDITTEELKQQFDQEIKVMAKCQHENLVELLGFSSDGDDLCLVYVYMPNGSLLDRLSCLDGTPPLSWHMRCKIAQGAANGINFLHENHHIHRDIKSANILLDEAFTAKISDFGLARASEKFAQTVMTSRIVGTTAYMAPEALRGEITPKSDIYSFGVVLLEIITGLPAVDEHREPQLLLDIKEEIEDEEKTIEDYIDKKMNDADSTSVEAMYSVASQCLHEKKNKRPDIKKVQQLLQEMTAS
Sequence of EPHA2 (human) (P29317 whole entry, looked up): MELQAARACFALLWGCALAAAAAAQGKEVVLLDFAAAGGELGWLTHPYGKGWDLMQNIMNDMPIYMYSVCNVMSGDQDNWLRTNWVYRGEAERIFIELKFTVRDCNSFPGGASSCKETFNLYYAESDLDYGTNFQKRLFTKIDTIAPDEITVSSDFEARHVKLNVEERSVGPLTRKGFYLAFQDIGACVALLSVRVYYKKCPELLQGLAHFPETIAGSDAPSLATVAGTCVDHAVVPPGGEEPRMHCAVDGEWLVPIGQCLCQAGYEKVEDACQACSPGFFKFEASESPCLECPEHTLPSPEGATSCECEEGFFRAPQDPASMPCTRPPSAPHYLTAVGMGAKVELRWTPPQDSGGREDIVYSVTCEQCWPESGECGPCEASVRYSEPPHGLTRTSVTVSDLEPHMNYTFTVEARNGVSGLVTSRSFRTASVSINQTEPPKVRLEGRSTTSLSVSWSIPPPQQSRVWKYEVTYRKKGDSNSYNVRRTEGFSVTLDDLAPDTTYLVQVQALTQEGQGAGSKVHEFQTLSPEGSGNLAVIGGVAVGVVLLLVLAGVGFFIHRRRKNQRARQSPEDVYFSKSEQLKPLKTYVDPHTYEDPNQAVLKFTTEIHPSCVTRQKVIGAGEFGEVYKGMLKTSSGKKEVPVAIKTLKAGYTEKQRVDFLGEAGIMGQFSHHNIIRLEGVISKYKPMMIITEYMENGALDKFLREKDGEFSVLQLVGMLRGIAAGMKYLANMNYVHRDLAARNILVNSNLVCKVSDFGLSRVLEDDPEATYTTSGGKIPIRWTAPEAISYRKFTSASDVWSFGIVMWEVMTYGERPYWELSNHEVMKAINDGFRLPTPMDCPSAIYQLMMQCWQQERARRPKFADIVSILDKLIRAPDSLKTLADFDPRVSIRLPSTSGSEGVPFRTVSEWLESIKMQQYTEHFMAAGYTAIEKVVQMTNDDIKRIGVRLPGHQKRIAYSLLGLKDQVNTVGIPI
Sequence of MAPK13 (human) (O15264 whole entry, looked up): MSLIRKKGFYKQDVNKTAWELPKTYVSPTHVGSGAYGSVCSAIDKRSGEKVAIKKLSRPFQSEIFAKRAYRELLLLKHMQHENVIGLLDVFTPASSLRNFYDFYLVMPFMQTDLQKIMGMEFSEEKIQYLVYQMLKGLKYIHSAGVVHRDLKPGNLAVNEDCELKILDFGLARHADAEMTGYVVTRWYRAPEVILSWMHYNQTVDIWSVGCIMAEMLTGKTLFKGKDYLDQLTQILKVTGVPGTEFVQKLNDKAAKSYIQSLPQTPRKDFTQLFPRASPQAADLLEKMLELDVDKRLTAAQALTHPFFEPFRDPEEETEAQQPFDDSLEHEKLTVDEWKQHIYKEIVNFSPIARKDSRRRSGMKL
Sequence of RPS6KA3 KD1 KD2 (human) (P51812 whole entry, looked up): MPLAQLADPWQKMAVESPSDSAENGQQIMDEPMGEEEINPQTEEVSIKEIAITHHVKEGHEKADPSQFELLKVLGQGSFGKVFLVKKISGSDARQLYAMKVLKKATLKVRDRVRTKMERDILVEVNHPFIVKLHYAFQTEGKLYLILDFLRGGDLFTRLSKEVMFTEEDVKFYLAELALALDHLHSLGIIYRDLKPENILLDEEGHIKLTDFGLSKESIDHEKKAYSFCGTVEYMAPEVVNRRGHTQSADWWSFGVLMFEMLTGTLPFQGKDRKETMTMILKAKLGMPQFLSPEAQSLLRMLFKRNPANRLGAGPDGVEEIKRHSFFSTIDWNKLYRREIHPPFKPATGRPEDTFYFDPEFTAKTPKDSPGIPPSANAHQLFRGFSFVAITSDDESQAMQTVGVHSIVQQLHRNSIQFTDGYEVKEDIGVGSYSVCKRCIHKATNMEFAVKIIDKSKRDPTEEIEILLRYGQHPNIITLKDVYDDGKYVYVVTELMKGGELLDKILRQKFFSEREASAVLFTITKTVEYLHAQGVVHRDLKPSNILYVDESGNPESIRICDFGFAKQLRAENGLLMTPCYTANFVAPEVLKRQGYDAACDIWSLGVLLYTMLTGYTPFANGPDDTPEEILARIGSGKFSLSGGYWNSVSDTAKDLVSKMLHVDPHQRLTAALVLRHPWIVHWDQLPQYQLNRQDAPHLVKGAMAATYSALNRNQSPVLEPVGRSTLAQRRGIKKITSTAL
Sequence of STK33 (human) (Q9BYT3 whole entry, looked up): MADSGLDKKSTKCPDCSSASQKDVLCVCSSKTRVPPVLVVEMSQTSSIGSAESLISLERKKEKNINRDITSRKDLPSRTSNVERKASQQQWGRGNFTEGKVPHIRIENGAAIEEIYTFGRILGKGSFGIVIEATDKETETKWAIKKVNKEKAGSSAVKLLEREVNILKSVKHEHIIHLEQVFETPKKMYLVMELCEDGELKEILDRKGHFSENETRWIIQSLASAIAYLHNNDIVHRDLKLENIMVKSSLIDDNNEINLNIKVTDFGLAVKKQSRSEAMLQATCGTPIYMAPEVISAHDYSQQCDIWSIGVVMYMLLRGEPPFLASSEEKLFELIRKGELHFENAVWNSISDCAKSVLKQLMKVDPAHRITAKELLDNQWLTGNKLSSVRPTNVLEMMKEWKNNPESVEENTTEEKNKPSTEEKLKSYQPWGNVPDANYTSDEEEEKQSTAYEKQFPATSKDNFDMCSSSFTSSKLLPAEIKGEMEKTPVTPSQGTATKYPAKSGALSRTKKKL

Row | SMILES | inhibition [1] | inhibition [2] | inhibition [3] | inhibition [4] | inhibition [5] | inhibition [6] | inhibition [7] | inhibition [8] | inhibition [9] | inhibition [10] | inhibition [11] | inhibition [12] | inhibition [13] | inhibition [14] | inhibition [15] | inhibition [16] | inhibition [17] | inhibition [18] | inhibition [19] | inhibition [20] | also measured
1 | COc1ccc(NC(=S)Nc2cnc3[nH]cnn3c2=O)cn1 | 0% | 10% | 20% | 16% | 8% | 3% | 0% | 0% | 42% | 22% | 0% | 0% | 38% | 11% | 0% | 28% | 25% | 13% | 25% | 0% | inhibition [21]: 0%; inhibition [22]: 0%; inhibition [23]: 15%; inhibition [24]: 17%; inhibition [25]: 47%; inhibition [26]: 5%; inhibition [27]: 1%; inhibition [28]: 23%; inhibition [29]: 5%; inhibition [30]: 0%; inhibition [31]: 0%; inhibition [32]: 20%; inhibition [33]: 34%; inhibition [34]: 1%; inhibition [35]: 0%; inhibition [36]: 27%; inhibition [37]: 1%; inhibition [38]: 0%; inhibition [39]: 23%; inhibition [40]: 0%
2 | CC(C)(C)Nc1c(C2CC2)nc2[nH]cnn12 | 0% | 0% | 0% | 0% | 68% | 0% | 11% | 0% | 0% | 9% | 0% | 0% | 0% | 0% | 34% | 9% | 65% | 0% | 6% | 0% | inhibition [21]: 0%; inhibition [22]: 0%; inhibition [23]: 0%; inhibition [24]: 0%; inhibition [25]: 13%; inhibition [26]: 3%; inhibition [27]: 34%; inhibition [28]: 0%; inhibition [29]: 0%; inhibition [30]: 0%; inhibition [31]: 0%; inhibition [32]: 7%; inhibition [33]: 26%; inhibition [34]: 22%; inhibition [35]: 9%; inhibition [36]: 4%; inhibition [37]: 0%; inhibition [38]: 18%; inhibition [39]: 1%; inhibition [40]: 34%
3 | CC(=O)Nc1nc2cnc(-c3ccccc3)cn2n1 | 10% | 23% | 29% | 58% | 32% | 53% | 13% | 18% | 25% | 19% | 60% | 16% | 18% | 34% | 61% | 11% | 45% | 7% | 28% | 0% | inhibition [21]: 0%; inhibition [22]: 16%; inhibition [23]: 5%; inhibition [24]: 38%; inhibition [25]: 9%; inhibition [26]: 1%; inhibition [27]: 79%; inhibition [28]: 0%; inhibition [29]: 12%; inhibition [30]: 1%; inhibition [31]: 39%; inhibition [32]: 69%; inhibition [33]: 20%; inhibition [34]: 49%; inhibition [35]: 11%; inhibition [36]: 30%; inhibition [37]: 22%; inhibition [38]: 20%; inhibition [39]: 16%; inhibition [40]: 41%
4 | COc1ccc(-c2cc3c(=O)[nH]cnc3s2)cc1OC | 0% | 45% | 14% | 60% | 0% | 5% | 38% | 0% | 36% | 12% | 0% | 63% | 0% | 23% | 19% | 31% | 32% | 0% | 29% | 37% | inhibition [21]: 28%; inhibition [22]: 16%; inhibition [23]: 0%; inhibition [24]: 24%; inhibition [25]: 52%; inhibition [26]: 8%; inhibition [27]: 50%; inhibition [28]: 18%; inhibition [29]: 0%; inhibition [30]: 0%; inhibition [31]: 9%; inhibition [32]: 36%; inhibition [33]: 9%; inhibition [34]: 58%; inhibition [35]: 0%; inhibition [36]: 56%; inhibition [37]: 4%; inhibition [38]: 0%; inhibition [39]: 0%; inhibition [40]: 0%
5 | O=C(c1cccc(-c2cc3c(=O)[nH]cnc3s2)c1)N1CCOCC1 | 0% | 38% | 10% | 40% | 6% | 0% | 61% | 0% | 19% | 0% | 0% | 14% | 33% | 31% | 6% | 41% | 57% | 1% | 46% | 37% | inhibition [21]: 3%; inhibition [22]: 12%; inhibition [23]: 0%; inhibition [24]: 29%; inhibition [25]: 39%; inhibition [26]: 0%; inhibition [27]: 46%; inhibition [28]: 21%; inhibition [29]: 0%; inhibition [30]: 0%; inhibition [31]: 28%; inhibition [32]: 47%; inhibition [33]: 30%; inhibition [34]: 38%; inhibition [35]: 0%; inhibition [36]: 53%; inhibition [37]: 0%; inhibition [38]: 0%; inhibition [39]: 0%; inhibition [40]: 0%
